Results on 73 molecules are retold here after ChEMBL document CHEMBL3507680, “University of Dundee, Gates Library screen for HepG2 cell viability”.

Structures are written as SMILES.

The nature of the series: Human HepG2 cell viability assay in 384 well format. The class given is toxicity, cell-based. The arrangement: dose 125 nL, time 70.5 hour; concentration not given beside the values. As to conditions: HepG2 cells, read-out: Inhibition.
Turning to `COc1cc(CN2CCCC[C@]3(C)NC(=O)CC[C@H]23)ccc1F`, the cytotoxicity at 70.5 h was -6.42%. In the case of `Clc1ccc(CN(CCN2CCOCC2)Cc2cccnc2)c(Cl)c1` it was -5.57%; in that of `Cc1nc(N)ncc1C(=O)N1CCCC(CCc2ccccc2F)C1` (stereo not drawn), 17%; in that of `CO[C@H]1CO[C@@]2(CCCN(C(=O)C3=CCCCC3)C2)C1`, -2.72%.

As for `COc1cc(N2C[C@H]3CN(CCN4CCCC4)C(=O)[C@H]3C2)ncn1`, the cytotoxicity at 70.5 h was -7.36%.

For `O=S(=O)(Cc1ccccc1)NCc1nnc2n1CCC2`, the cytotoxicity at 70.5 h was -22.1%. Turning to `COc1cccc(C2CCCN2C(=O)c2cc3c([nH]c2=O)CCC3)c1` (stereo not drawn), the cytotoxicity at 70.5 h was -2.15%. As for `Cc1ccc(NC(=O)N(C)CC(O)COCCOC(C)C)c(Br)c1` (stereo not drawn), the figure is -4.27%; as for `O=C(Nc1ccccc1F)C1=NN(c2ccccc2)C(=O)CN1`, -4.94%.

Take `CN1CCN(C(=O)c2cn(-c3ccc(C(F)(F)F)cn3)nn2)CC1`: the cytotoxicity at 70.5 h was -6.96%. In the case of `O=C(CC1CC2(CCN(CC3CC3)CC2)c2ccccc21)NC1CCC1` (stereo not drawn) it was -2.68%; in that of `O=S1(=O)COCCN1Cc1ccc(F)c(F)c1`, -7.08%. As for `C[C@@H]1CN(Cc2nc(C(N)=O)no2)CC[C@@]1(O)C1CC1`, the cytotoxicity at 70.5 h was -14.8%. As for `Cc1cnc(N2CCC3(CC2)CCN(c2cncnc2)C3=O)nc1`, the cytotoxicity at 70.5 h amounted to 8.5%. For the molecule `Cc1ccc(CN(C(=O)NCc2nnc3n2CCCCC3)C2CC2)o1`, the cytotoxicity at 70.5 h is -10.9%. In the case of `Cc1cccnc1CN1CCN(C(=O)c2cnn(C(C)C)c2)CC1` it was 15.6%. As for `CN(C)CCOc1cc(NC(=O)COCC(F)(F)F)ccn1`, the figure is -2.8%; as for `CN(C)c1ccc(C(=O)N2CCCN(Cc3cscn3)CC2)nn1`, 27.8%. As for `c1ccc(Cn2cccn2)c(CN2CCCCC2CCn2ccnc2)c1` (stereo not drawn), the figure is 0.54%; as for `CCO[C@@H]1CCN(c2ccc(C)nn2)[C@@H]1Cc1cnn(C)c1`, -10.9%; as for `CCCS(=O)(=O)NC(=O)c1ccc(CC)o1`, 2.47%. Consider `CC(C)c1cc(N2CCN(c3ccc(O)cc3)CC2)n2nccc2n1`, for which the cytotoxicity at 70.5 h is -11.5%. Regarding `COCCN(C)C(=O)Nc1ccc2c(ccn2CCOC)c1`, the cytotoxicity at 70.5 h stood at 32.1%. In the case of `COCC(=O)N1CCC2(CCCN(Cc3ccc(Cl)cc3)CC2)CC1` it was 44.6%; in that of `CCC1=NC(SCC(=O)c2ccc(Cl)cc2)c2cc(CC)sc2N1` (stereo not drawn), -11%. For `Fc1ccccc1NCc1nc2n(n1)CCCCC2`, the cytotoxicity at 70.5 h is -19.3%.

Consider `CC(O)CN1CCc2onc(-c3ccccc3F)c2C1` (stereo not drawn), for which the cytotoxicity at 70.5 h was -22.3%. In the case of `O=C(CCC(=O)N1CCc2ccccc2C1)c1cccs1`, the cytotoxicity at 70.5 h came to 2.72%. `Cc1noc(CN(Cc2cccc(C#N)c2)Cc2cccs2)n1`: the cytotoxicity at 70.5 h amounted to 0.497%. As for `Cc1cc2[nH]c(=O)oc2cc1S(=O)(=O)N1CCCC(N(C)C)CC1` (stereo not drawn), the cytotoxicity at 70.5 h is -2.95%. Take `COc1ccc2cc(C3CN(C(=O)CCNC(C)=O)CCO3)ccc2c1` (stereo not drawn): the cytotoxicity at 70.5 h stood at 2.84%.

As to `Cc1cnn(CC2CCCCN2Cc2nnsc2Cl)c1` (stereo not drawn), the cytotoxicity at 70.5 h was -7.35%. In the case of `Cc1nc(COC[C@@]23CCC[C@@H]2CN(Cc2nccs2)C3)cs1` it was -7.37%; in that of `COc1cc(CNC(=O)Nc2nnc(C(C)C)s2)ccn1`, 1.23%. With `Cc1cnc(C2(C)CCN(Cc3cscn3)CC2)s1`, the cytotoxicity at 70.5 h is -6.19%. Consider `CCc1nc(NS(=O)(=O)c2ccc(F)cc2C)no1`, for which the cytotoxicity at 70.5 h was -5.01%. For `O=C(c1cnc2n1CCN(Cc1ccccc1)C2)N1CCCC1`, the cytotoxicity at 70.5 h is -9.37%. In the case of `CSCC(C)(O)CNc1ncccc1C(F)(F)F` (stereo not drawn) it was 1.25%; in that of `CC(=O)c1ccc(NC(=O)c2ccc3c(c2)C2(CCCCC2)CN3)cc1`, -9.32%; in that of `CCN1CCN(C)C(=O)C12CCN(Cc1ccsc1)CC2`, -13%. Take `CCOCCOc1ccccc1C(=O)N1CCCC(c2ncc[nH]2)C1` (stereo not drawn): the cytotoxicity at 70.5 h is -5%. As for `CCc1cc(C(=O)NCC2CCN(Cc3ccncc3)CC2)on1`, the figure is -9.67%; as for `CN1CC2(CCN(CC3CC3)CC2)COc2ccccc2S1(=O)=O`, -1.33%; as for `CCc1ccc(-c2c(C)c(-c3cnn(C)c3)nc(N)c2C#N)o1`, -6.72%. As to `Cc1ccc2nc(C3CCCN(CC(C)C)C3)nc(O)c2c1` (stereo not drawn), the cytotoxicity at 70.5 h was -2.98%. With `Cc1cc2nc(C(C)C)cc(NC(C)c3nncn3C3CCCC3)n2n1` (stereo not drawn), the cytotoxicity at 70.5 h was -11.7%. As for `CC(NC(=O)c1cccs1)C(=O)NS(=O)(=O)c1ccc(C#N)cc1` (stereo not drawn), the figure is -5.58%. As for `Cc1ccc(N2CCO[C@H]3CN(Cc4cccnc4)C[C@H]32)nn1`, the figure is 12.6%; as for `O=C(Cc1ccon1)N(CCC(F)(F)F)C1CCCC1`, -3.19%; as for `CCNC(=O)N(Cc1ccoc1)C1CCCCC1`, -5.6%. As for `CN(CC(=O)N1CCN(c2cnccn2)CC1)c1ccc(Cl)cn1`, the figure is -13.1%; as for `Cc1ccc(CNCc2nnc3n2CCCC3C(F)(F)F)o1` (stereo not drawn), 6.51%. For the molecule `CC1CCCN(C(=O)c2ccc(-c3ccco3)o2)C1` (stereo not drawn), the cytotoxicity at 70.5 h is -22.7%. In the case of `CC[C@@H](CO)NC(=O)c1coc(COc2ccc3sc(C)nc3c2)n1`, the cytotoxicity at 70.5 h is -12.1%.

Turning to `O=C(Nc1ccc(CC(=O)N2CCSCC2)cc1)NC1CC1`, the cytotoxicity at 70.5 h was 14.5%.

In the case of `O=C(NCc1ccccc1CN1CCCCCC1)Nc1nncs1`, the cytotoxicity at 70.5 h was -5.79%. In the case of `CCC(C)N(Cc1sccc1C)C(=O)c1ccc2cccnc2n1` (stereo not drawn) it was -11.7%; in that of `O=C(CCc1nc(-c2cccnc2)no1)N(CC1CCOC1)C1CC1` (stereo not drawn), 12%. For the molecule `Cc1nc2ccccc2nc1CN1CCCC1Cn1cncn1` (stereo not drawn), the cytotoxicity at 70.5 h was 19.7%. For `COc1ccc(F)cc1C[S+]([O-])CC(=O)NCc1ccccc1` (stereo not drawn), the cytotoxicity at 70.5 h was -4.53%.

In the case of `Cc1ncsc1C(=O)N1CCn2nc(CN3CCSCC3)cc2C1`, the cytotoxicity at 70.5 h is -1.17%.

For `Cc1cnn(CC(C)NCc2cc(C#N)ccc2F)c1` (stereo not drawn), the cytotoxicity at 70.5 h is -5.57%. In the case of `Cc1ccc(N2CCc3ncnc(C4CC4)c3CC2)nn1` it was 21.3%; in that of `Cc1ccc(O)c(CNCC(C)c2nc3ccccc3o2)n1` (stereo not drawn), -4.08%. As for `Cc1cc(C(=O)N2CCN(S(C)(=O)=O)[C@@H](C)C2)c(F)cc1F`, the figure is -97.9%; as for `CN(CCN1CCCCCC1)Cc1cnc(N)nc1`, -6%. Take `CCc1noc(CN(Cc2cccs2)CC2CCCO2)n1` (stereo not drawn): the cytotoxicity at 70.5 h is -1.65%. As for `CN(CCOc1cccc(CN)c1)C1CCOCC1`, the figure is -8.25%; as for `CCC(C)C(=O)Nc1ccc(CCN2CCOCC2)cc1` (stereo not drawn), -18.2%.

In the case of `Cc1nn(CN(CC(C)C)C2CC2)c(=O)c2noc(C)c12`, the cytotoxicity at 70.5 h turned out to be 14.5%. As for `Cc1cc(Cc2ccccc2)cc(C2CCCNC2)n1` (stereo not drawn), the figure is -5.23%; as for `Cc1cccc(-n2cc(CNc3ncnc4c3CCNCC4)cn2)c1`, -10.3%; as for `CCS(=O)(=O)N1CCCC(c2ccnc(N(C)C)c2)C1` (stereo not drawn), -6.79%.
